Data published in US20160089346A1, “METHOD OF TREATMENT FOR BODY CONTOURING” (Neothetics, Inc., priority 2014, published 2016).

Experiments:
[1] = compared with albuterol, a short-acting hydrophilic beta-adrenergic agonist; cited from earlier work
[2] = tested on: non-obese adult subjects with central abdominal bulging; assay: Phase 2 RESET trial: adverse effects and tolerability; format: in vivo, human; details: for Any Adverse Event Definitely or Possibly Related to Study Drug (incidence): 20 SC injections once a week for 8 weeks
Experimental: (§1) Methods: A randomized, double-blind, placebo-controlled study was conducted to evaluate the safety and efficacy of a composition comprising the long-acting beta-2 receptor agonist salmeterol xinafoate. This study was reviewed and approved by a central IRB (Chesapeake IRB, Columbia, Md.) and written informed consent was received from all study subjects. The study enrolled 513 adult subjects with central abdominal bulging at 31 investigative sites across the U.S. Subjects were required to be non-obese (BMI<30 kg/m^2), have a focal area of central abdominal bulging due to excess subcutaneous fat (˜400 cm^2 area around the umbilicus), have adequate skin elasticity, have at least a rating of “slight bulge, not flat” on both the 5-point Patient- and Clinician-Global Abdominal Perception Scales (P-GAPS and C-GAPS) at Screening and Day 1, and who were at least slightly dissatisfied with their abdominal bulging in the treatment area. The P-GAPS includes the ratings: flat, almost flat, slight bulge/not flat, […].
(§2) Subjects were randomized to receive 1 of 3 doses of salmeterol xinafoate (0.4, 1.0, or 4.0 μg total weekly dose) or placebo (0.9% Sodium Chloride Injection, USP) once a week for 8 weeks starting on Day 1 after all entry criteria had been satisfied. Randomization was based on a computer-generated, site-based randomization schedule, which was distributed to authorized, unblinded personnel at each site. Twenty, 1 mL weekly subcutaneous (SC) injections administered via a ½ inch 30 gauge needle were spaced 4 cm apart on the anterior abdomen between axial planes at +35 mm and −70 mm, relative to the umbilicus. Consistent injection placement was assured by the weekly application of a water-based temporary tattoo defining the location of the 20 administration injection sites. Efficacy endpoints included a Patient- and Clinician-Global Abdominal Perception Scale, a Patient and Clinician Photonumeric Scale (PPnS and CPnS) and duplicate abdominal circumference measurements (taken at +35 mm, 0 and −70 mm, relative to the umbilicus, using a standardized tape measurement (e.g., laser-guided) procedure).
Demographics & Safety Results: Subjects enrolled in the study were primarily female (81%; 418/513), white (86%; 440/513), with a mean age of 38 (18−71) years and a mean BMI of 23.4 (18.2−29.9) kg/m^2. […] Ninety-two percent completed the study per protocol; 6 subjects (1%) were lost to follow-up, 4 subjects (<1%) were terminated for protocol violation, 10 subjects (2%) withdrew consent and 21 subjects (4%) withdrew for miscellaneous causes. […] The most frequently reported treatment-emergent adverse effects related to study drug were mild and transient injection site events, including hematoma, erythema, contusion, and pain. The incidence of these adverse effects is reported in Table 1 (a single incidence (<1%) of an adverse event was reported randomly across organ systems and all treatment groups and is not reported in the table). These injection site events occurred with a similar frequency in subjects in the placebo group and in the salmeterol xinafoate groups and were considered to be related to the typical mechanical trauma of an injection procedure rather than the study drug itself.

[3] = tested on: central abdominal bulging due to excess subcutaneous fat; assay: Phase 2 RESET trial: abdominal circumference by laser-guided tape measure, and calculated abdominal volume; format: in vivo, human; details: 0.4 μg total weekly dose
Experimental: as §1, §2
A specific set of standardized instructions (e.g., patient positioning, posture, breathing, etc.) were followed for the collection of all ratings and measurements. Designated clinical site personnel were trained in person to perform each procedure; some procedures also included a training video. […] Specific to the laser-guided tape measure procedure, the reproducibility of the procedure beyond what is obtained with a standard manual tape measure was enhanced with the water-based tattoo on the anterior abdomen, a self-tensioning tape measure, a tripod-mounted laser level and electronic data capture to ensure the independent recording of circumferential measurements. Both the 5-point patient and clinician verbal scales (P-GAPS and C-GAPS) that assigned scores ranging from flat to big (or pronounced) bulge, as well as the 6-point patient and clinician photonumeric scales (PPnS and CPnS) that are a match-to-sample task in which an abdominal profile are selected from a series of 6 identical torsos with a progressively larger anterior abdominal bulge were specifically developed and validated to assess treatment effects in non-obese subjects with central abdominal bulging. Neither patients nor clinicians had access to the others' scale ratings and neither had access to previous scale scores. Final assessments on all outcome measures were performed 1 week after the last injections (Day 57±2 days).
All efficacy analyses used a repeated measures analysis of covariance (ANCOVA) model to determine differences between each active treatment group and placebo. […]

[4] = tested on: central abdominal bulging due to excess subcutaneous fat; assay: Phase 2 RESET trial: patient and clinician rating scales (P-GAPS, C-GAPS, PPnS, CPnS), composite responders; format: in vivo, human; details: 0.4 μg total weekly dose
Experimental: as §1, §2
A specific set of standardized instructions (e.g., patient positioning, posture, breathing, etc.) were followed for the collection of all ratings and measurements. Designated clinical site personnel were trained in person to perform each procedure; some procedures also included a training video. […] Specific to the laser-guided tape measure procedure, the reproducibility of the procedure beyond what is obtained with a standard manual tape measure was enhanced with the water-based tattoo on the anterior abdomen, a self-tensioning tape measure, a tripod-mounted laser level and electronic data capture to ensure the independent recording of circumferential measurements. […]

[5] = subjects weight neutral or lost weight (≦0 kg)

Structure (SMILES): OCc1cc(C(O)CNCCCCCCOCCCCc2ccccc2)ccc1O (stereo not shown) [salmeterol]
- Lipophilicity relative to albuterol [1]: at least 10,000 times

Structure (SMILES): OCc1cc(C(O)CNCCCCCCOCCCCc2ccccc2)ccc1O (stereo not shown) [salmeterol xinafoate]
- Injection Site Erythema (incidence) ([2]; 0.4 μg total weekly dose): 2%
- Injection Site Hematoma (incidence) ([2]; 0.4 μg total weekly dose): 5%
- Injection Site Hemorrhage (incidence) ([2]; 0.4 μg total weekly dose): 0%
- Injection Site Pain (incidence) ([2]; 0.4 μg total weekly dose): 3%
- Any Adverse Event Definitely or Possibly Related to Study Drug (incidence) ([2]; 0.4 μg total weekly dose): 11%
- Injection Site Erythema (incidence) ([2]; 1.0 μg total weekly dose): 2%
- Injection Site Hematoma (incidence) ([2]; 1.0 μg total weekly dose): 6%
- Injection Site Hemorrhage (incidence) ([2]; 1.0 μg total weekly dose): 0%
- Injection Site Pain (incidence) ([2]; 1.0 μg total weekly dose): 2%
- Any Adverse Event Definitely or Possibly Related to Study Drug (incidence) ([2]; 1.0 μg total weekly dose): 12%
- Injection Site Erythema (incidence) ([2]; 4.0 μg total weekly dose): 0%
- Injection Site Hematoma (incidence) ([2]; 4.0 μg total weekly dose): 6%
- Injection Site Hemorrhage (incidence) ([2]; 4.0 μg total weekly dose): 0%
- Injection Site Pain (incidence) ([2]; 4.0 μg total weekly dose): 2%
- Any Adverse Event Definitely or Possibly Related to Study Drug (incidence) ([2]; 4.0 μg total weekly dose): 12%
- Tolerability ([2]; 0.4, 1.0 and 4.0 μg total weekly dose, 20 SC injections into abdominal adipose tissue once a week for 8 weeks): well tolerated
- Significant adverse events during the study ([2]; all dose groups, 8 weeks): no significant adverse events
- Change in abdominal volume from baseline ([3]; Day 57, all subjects, +35 mm to −70 mm relative to the umbilicus, placebo −90 mL, p=0.001): -192 mL
- Mean change in abdominal circumference at the umbilicus from baseline ([3]; Day 57, all subjects, placebo −0.7 cm, p=0.001): −1.6 cm
- Mean reduction in abdominal volume relative to placebo ([3]; all subjects): -102 mL
- Mean reduction in umbilical circumference relative to placebo ([3]; all subjects): −0.9 cm
- Mean reduction in abdominal volume from baseline [3, 5]: -329 mL
- Mean reduction in abdominal volume relative to placebo [3, 5]: -175 mL
- Mean reduction in umbilical circumference from baseline [3, 5]: −2.7 cm
- Mean reduction in umbilical circumference relative to placebo [3, 5]: −1.6 cm
- Dose comparison of efficacy across most outcome measures ([3]; lowest dose, 0.02 μg/mL): the most efficacious
- Change from baseline across all rating instruments (P-GAPS, C-GAPS, PPnS, CPnS) [4]: consistent mean reductions from baseline
- Composite responders (2-point improvement on P-GAPS and 2-point improvement on CPnS) compared to placebo [4]: significantly more responders
- % composite responders (1-point improvement on P-GAPS and 2-point improvement on CPnS) ([4]; all subjects): 16%
- % composite responders (1-point improvement on P-GAPS and 2-point improvement on CPnS) [4, 5]: 22%
